“Also recorded” adds a separate entry of the source.
Test system: human PC-3 prostate cancer cells
Test: in vitro assay of PC-3 cell invasion across Matrigel artificial membrane
Type: cell-based
Settings: for X ± σ (X = mean number of invading cells, σ = standard deviation): PC-3 cells, HGF 40 ng/ml induced invasion, fixed total concentration 4 micrograms/ml, 72 hr culture, c+ 33 ± 10.7, c− 3 ± 1.7; for inhibition of PC-3 invasion, result in words: total dose 4 micrograms/ml, Kruskal-Wallis test
Description: In order to determine a possible molecular mechanism of mixtures of conjugated fatty acids and polyphenols according to the present invention, an accepted in vitro assay of cancer cell invasion was employed (Jiang et al., (1995) Regulation of the expression of E-cadherin on human cancer cells by gamma-linolenic acid (GLA). Cancer Res. 55:5043-5048).
Specifically, human PC-3 prostate cancer cells were used as an in vitro model to assess invasion across a Matrigel™ (Becton, Dickenson and Company, Franklin Lakes, N.J.) artificial membrane. Briefly, 6.5 mm diameter polycarbonate membranes (pore size 8 microns) […]. Following gel rehydration, 5×10^4 PC-3 human prostate cancer cells were added to each well. Hepatocyte growth factor/scatter factor (HGF) (Becton, Dickenson & Company, Franklin Lakes, N.J.) was used at 40 ng/ml to induce invasion. The upper chamber contained thested components (i.e. punicic acid, luteolin, caffeic acid or ellagic acid, or a combination of two, three or all four of the chemicals) at a fixed total concentration of 4 micrograms/ml.
Pure compounds (ellagic acid ([…], luteolin [L], caffeic acid [C] and punicic acid […]) were purchased commercially (E, C and L from Sigma Aldrich, Rehovot, Israel; P from Larodan Chemicals; Malmo; Sweden) and assayed as potential invasion inhibitors. The total dose was 4 micrograms/ml in each of 18 trials. The Kruskal-Wallis test was used to measure significance.

## O=C(O)/C=C/c1ccc(O)c(O)c1 [C, caffeic acid]
  X ± σ (X = mean number of invading cells, σ = standard deviation): 16.8 ± 3.4
  inhibition of PC-3 invasion, result in words: inhibited invasion significantly; also recorded: much less than that of ellagic acid, punicic acid or luteolin

## O=c1oc2c(O)c(O)cc3c(=O)oc4c(O)c(O)cc1c4c23 [E, ellagic acid]
  X ± σ (X = mean number of invading cells, σ = standard deviation): 7.4 ± 2.3
  inhibition of PC-3 invasion, result in words: inhibited invasion significantly

## O=c1cc(-c2ccc(O)c(O)c2)oc2cc(O)cc(O)c12 [L, luteolin]
  X ± σ (X = mean number of invading cells, σ = standard deviation): 9 ± 1.6
  inhibition of PC-3 invasion, result in words: inhibited invasion significantly

## CCCC\C=C/C=C/C=C\CCCCCCCC(=O)O [P, punicic acid]
  X ± σ (X = mean number of invading cells, σ = standard deviation): 6.4 ± 1.1
  inhibition of PC-3 invasion, result in words: inhibited invasion significantly

Source: patent US20080234361A1, “Pharmaceutical Compositions, Methods of Formulation Thereof and Methods of Use Thereof” (Rimonest Ltd., priority 2004, published 2008)
